Reference: US11866416B2, “Streptococcus mutans glucosyl transferase inhibitors for dental caries therapy” (UAB Research Foundation, priority 2018, dated 2024)
≈ marks a conversion by molar mass, not a printed value. Where two headings read alike, the source gives them in different places. Marks after values point to notes of the source that are not given here.

Tests used:
S. mutans = experiment: microbe, parasite or virus in culture; format: cell-based, Streptococcus mutans; conditions: for Selectivity: growth versus biofilm
Description: Cell viability of S. mutans, S. gordonii, S. sanguinis, Aggregatibacter actinomycetemcomitans and Actinomyces. […] The number of colony-forming units (CFU) per milliliter of each sample treated with selected compounds at different concentrations was enumerated after incubation for 24 h at 37° C. and compared to the values obtained from the DMSO control group. Overnight broth cultures were transferred by 1:50 dilutions into fresh THB medium and were allowed to grow until mid-exponential phase (OD470 nm 0.6) before transfer to 96-well plates containing desired concentration of the compound. After 16 h incubation, bacterial growth was measured at OD470, and normalized to the DMSO control (100%).
Cell viability of S. mutans and commensal S. gordonii and S. sanguinis. Effects of lead small molecules on cell viability were examined. The number of colony-forming units (CFU) per milliliter for each compound at different concentrations was determined after incubation for 24 h at 37° C. and compared to the values obtained from the DMSO control group.
Cell viability of S. mutans and commensal S. gordonii and S. sanguinis. […] DMSO served as a control group and provided a relative comparison for the number of colony-forming units (CFU) per milliliter for each compound at different concentrations was determined after incubation for 24 h at 37° C. The final concentration of DMSO used in the assays was 1%.

S. mutans biofilm = S. mutans biofilm formation and inhibition assay (96-well plates, crystal violet); format: cell-based, Streptococcus mutans
Description: Biofilm assays using 96-well flat-bottom polystyrene microtiter plates were performed to evaluate S. mutans biofilm formation at various conditions as described (Liu et al. (2011) Antimicrobial Agents and Chemotherapy 55, 2679; Zhang et al. (2015) International Journal of Antimicrobial Agents 46, 174), the disclosures of which are incorporated herein by reference in their entirety). Each assay was replicated three times. Compounds that inhibited biofilm formation at minimum concentration (MBIC) were determined by serial dilutions.
S. mutans biofilm formation and inhibition assays. […] Each assay was replicated three times. Minimum biofilm inhibitory concentration (MBIC) of compounds was determined by serial dilutions.
S. mutans biofilm formation and inhibition assays. Biofilm assays using 96-well flat-bottom polystyrene microtiter plates were performed to evaluate S. mutans biofilm formation at various conditions as described. Each assay was replicated […]. Compounds that inhibited 50% biofilm formation were determined by serial dilutions.
S. mutans biofilm formation and inhibition assays. A well-established protocol to study S. mutans biofilm formation in 96-well flat-bottom polystyrene microtiter plates was used, in triplicate (Mattos-Graner, R. O.; Napimoga, M. H.; Fukushima, K.; Duncan, M. J.; Smith, D. J., Comparative analysis of Gtf isozyme production and diversity in isolates of Streptococcus mutans with different biofilm growth phenotypes. Journal of clinical microbiology 2004, 42 (10), 4586-4592). The stock solutions were made up in 100% DMSO, and final concentration of DMSO used in the assays was 1%. Minimum biofilm inhibitory concentration (MBIC) of compounds was determined by serial dilutions.

[1] = Streptococcus mutans, Table 4, stilbenes, average of at least 5 measurements, NI = no inhibition, read-out: Growth MIC50
[2] = Table 8, stilbenes, average of at least 5 measurements, NI = no inhibition
[3] = Streptococcus mutans, Table 4, stilbenes, NI = no inhibition, read-out: Biofilm IC50
[4] = Streptococcus mutans, Table 8, stilbenes, NI = no inhibition, read-out: Biofilm IC50
[5] = Streptococcus mutans, Table 2, >300 = no inhibition up to 300 μM, read-out: Growth Inhibition MIC50
[6] = Streptococcus mutans, Table 2, read-out: Biofilm Inhibition IC50
[7] = Streptococcus mutans, Table 3, >300 = no inhibition up to 300 μM, NI = no inhibition up to 400 μM, read-out: Growth Inhibition MIC50
[8] = Streptococcus mutans, Table 3, read-out: Biofilm Inhibition IC50

SMILES | MIC50 (S. mutans; [5]) | IC50 (S. mutans biofilm; [6]) | MIC50 (S. mutans; [7]) | IC50 (S. mutans biofilm; [8]) | other results
COc1cc(O)cc(/C=C/c2ccccc2)c1 [Entry 6] | – | – | – | – | MIC50 (S. mutans; [1]): 546 ± 25 µM (≈ 124 µg/mL); Selectivity (S. mutans; Table 4, stilbenes): 1.1; Growth MIC50 (S. mutans; [2]): 546 ± 25 µM; Selectivity (S. mutans; Table 8, stilbenes): 1.1; IC50 (S. mutans biofilm; [3]): 477 ± 51 µM; IC50 (S. mutans biofilm; [4]): 477 ± 51 µM
COc1cc(/C=C/c2ccc(OC)c(O)c2)cc(OC)c1 [Entry 9] | – | – | – | – | MIC50 (S. mutans; [1]): 137 ± 6 µM (≈ 39.2 µg/mL); Selectivity (S. mutans; Table 4, stilbenes): 1.1; Growth MIC50 (S. mutans; [2]): 137 ± 6 µM; Selectivity (S. mutans; Table 8, stilbenes): 1.1; IC50 (S. mutans biofilm; [3]): 122 ± 11 µM; IC50 (S. mutans biofilm; [4]): 122 ± 11 µM
O=C(/C=C/c1ccc(O)c(O)c1)O[C@@H]1C[C@](O)(C(=O)O)C[C@@H](O)[C@H]1O [Entry 10] | – | – | – | – | MIC50 (S. mutans; [1]): 1720 ± 53 µM (≈ 611 µg/mL); Selectivity (S. mutans; Table 4, stilbenes): 3.3; Growth MIC50 (S. mutans; [2]): 1724 ± 53 µM; Selectivity (S. mutans; Table 8, stilbenes): 3.3; IC50 (S. mutans biofilm; [3]): 518 ± 85 µM; IC50 (S. mutans biofilm; [4]): 518 ± 85 µM
C[n+]1ccc(/C=C/c2ccc(O)c(O)c2)c2ccccc21 [Entry 11] | – | – | – | – | MIC50 (S. mutans; [1]): > 400 µM; Selectivity (S. mutans; Table 4, stilbenes): 4.0; MIC50 (S. mutans; Table 8, stilbenes, average of at least 5 measurements, NI = no inhibition, read-out: Growth MIC50): >400 µM; Selectivity (S. mutans; Table 8, stilbenes): 4.0; IC50 (S. mutans biofilm; [3]): 104 ± 6 µM; IC50 (S. mutans biofilm; [4]): 104 ± 6 µM
COc1ccc(/C=C/c2cc(O)cc(O[C@@H]3O[C@H](CO)[C@@H](O)[C@H](O)[C@H]3O)c2)cc1O [Entry 12] | – | – | – | – | MIC50 (S. mutans; [1]): 134 ± 11 µM (≈ 56.3 µg/mL); Selectivity (S. mutans; Table 4, stilbenes): 1.2; Growth MIC50 (S. mutans; [2]): 134 ± 11 µM; Selectivity (S. mutans; Table 8, stilbenes): 1.2; IC50 (S. mutans biofilm; [3]): 106 ± 11 µM; IC50 (S. mutans biofilm; [4]): 106 ± 11 µM
NC(=O)c1ccccc1NC(=O)c1ccc2ncoc2c1 [HW-1-179] | > 300 µM | 65.1 µM | – | – | –
COc1ccc(/C=C2\Oc3ccccc3C2=O)cc1OC [LC-I-197] | – | – | 37.1 ± 6 µM (≈ 10.5 µg/mL) | 8.4 ± 1 µM | –
COc1ccc(/C=C2\Oc3ccccc3C2=O)c(OC)c1 [LC-I-203] | – | – | > 300 µM | 40.6 ± 3 µM | –
COc1cc(OC)c(OC)cc1/C=C1\Oc2ccccc2C1=O [LC-I-205] | – | – | > 300 µM | 8.3 ± 1 µM | –
O=C1/C(=C/c2ccccc2)Oc2ccccc21 [LC-I-206] | – | – | > 300 µM | 320 ± 21 µM | –
O=C(/C=C/c1ccc(O)c(O)c1)c1ccc(O)c(O)c1O [Okanin (natural), Okanin] | – | – | 534 ± 17 µM (≈ 154 µg/mL) | 64 ± 7 µM | –
COc1cc(-c2[o+]c3cc(O)cc(O)c3cc2O)cc(O)c1O [PAC] | – | – | 274 ± 45.8 µM | 61.2 ± 2.3 µM | –
Oc1cc(O)c2cc(O)c(-c3cc(O)c(O)c(O)c3)[o+]c2c1 [PBF] | – | – | 262 ± 21 µM | 135 ± 5.6 µM | –
O=C(/C=C/c1ccc(O)cc1O)c1cccc(O)c1 [RZ-1-86] | – | – | 469 ± 16 µM (≈ 120 µg/mL) | 32 ± 5 µM | –
O=C(/C=C/c1ccc(O)c(O)c1)c1ccccc1O [RZ-1-90] | – | – | > 300 µM | 356 ± 14 µM | –
CN(C)c1ncc(/C=C/C(=O)Nc2ccccc2C(N)=O)cn1 [SN-I-271S] | > 300 µM | 12.8 µM | – | – | –
NC(=O)c1ccccc1NC(=O)c1ccc2ncsc2c1 [SN-I-271U] | > 300 µM | 36.1 µM | – | – | –
O=C(O)c1ccc(NC(=O)c2cc3cc([N+](=O)[O-])ccc3s2)cc1 [SN-I-272OH] | > 300 µM | 15.6 µM | – | – | –
O=C(O)c1ccc(NC(=O)c2cc3ccccc3s2)cc1 [SN-I-272VH] | > 300 µM | 180 µM | – | – | –
NC(=O)c1ccccc1C(=O)Nc1cnc2ccccc2c1 [SN-I-285] | > 300 µM | 102 µM | – | – | –

SMILES | MIC50 (S. mutans; [5]) | IC50 (S. mutans biofilm; [6]) | MIC50 (S. mutans; [7]) | IC50 (S. mutans biofilm; [8]) | other results
[N-]=[N+]=Nc1ccc(NC(=O)c2cc3cc([N+](=O)[O-])ccc3s2)cc1 [SN-I-287] | > 300 µM | 250 µM | – | – | –
[N-]=[N+]=Nc1ccc(C(=O)Nc2ccccc2C(N)=O)cc1 [SN-I-288] | > 300 µM | 212 µM | – | – | –
[N-]=[N+]=Nc1ccc2sc(C(=O)Nc3ccccc3C(N)=O)cc2c1 [SN-II-14] | > 300 µM | 57.2 µM | – | – | –
COc1ccc(/C=C/C(=O)c2ccc(OC)c(OC)c2O)c(OC)c1 [SN-II-24-B6] | – | – | 231 ± 12 µM (≈ 79.4 µg/mL) | 101 ± 3 µM | –
O=C(/C=C/c1ccc(O)cc1O)c1ccccc1O [SN-II-32] | – | – | 327 ± 24 µM (≈ 83.8 µg/mL) | 250 ± 16 µM | –
O=C(/C=C/c1ccc(O)cc1O)c1ccc(O)cc1 [SN-II-49C] | – | – | 782 ± 96 µM (≈ 200 µg/mL) | 77 ± 8 µM | –
NC(=O)c1cc(NC(=O)c2cc3cc([N+](=O)[O-])ccc3s2)cc(C(N)=O)c1 [SN-II-50] | > 300 µM | 4.6 µM | – | – | –
NC(=O)c1cc(NC(=O)c2cc3cc([N+](=O)[O-])ccc3s2)ccc1[N+](=O)[O-] [SN-II-59] | > 300 µM | 23.4 µM | – | – | –
O=c1c(O)c(-c2ccc(O)cc2O)oc2ccccc12 [SN-II-79] | – | – | 30 ± 1 µM (≈ 8.11 µg/mL) | 65.9 ± 1 µM | –
Cl.NC(=O)c1ccccc1NC(=O)c1cc2cc(N)ccc2s1 [SN-II-81Cl] | – | 9.6 µM | – | – | Growth Inhibition MIC50 (S. mutans; Table 2, >300 = no inhibition up to 300 μM): >300^b μM
NC(=O)c1ccccc1NC(=O)c1cc2cc(N)ccc2s1 [SN-II-81F] | > 300 µM | – | – | – | IC50 (S. mutans biofilm; Table 2, read-out: Biofilm Inhibition IC50): 56.4 µM
O=c1c(O)c(-c2cc(O)c(O)cc2O)oc2ccccc12 [SN-II-92] | – | – | 63.1 ± 4 µM (≈ 18.1 µg/mL) | 19.8 ± 2 µM | –
COC(=O)c1cccc(NC(=O)c2cc3cc(N)ccc3o2)c1 [SN-II-105] | 347 µM (≈ 108 µg/mL) | 5.5 µM | – | – | –
COC(=O)c1cccc(NC(=O)c2cc3cc(N/C(=N\C(=O)OC(C)(C)C)NC(=O)OC(C)(C)C)ccc3o2)c1 [SN-II-106] | 29 µM (≈ 16 µg/mL) | 14 µM | – | – | –
COC(=O)c1cccc(NC(=O)c2cc3cc(NC(=N)N)ccc3o2)c1 [SN-II-107] | 45.9 µM (≈ 16.2 µg/mL) | 16.6 µM | – | – | –
O=C1/C(=C/c2cc(O)c(O)cc2O)Oc2ccccc21 [SN-II-110] | – | – | 157 ± 13 µM (≈ 42.3 µg/mL) | 10.2 ± 2 µM | –
O=C(/C=C/c1ccc(O)cc1)c1ccccc1O [SN-II-113] | – | – | > 300 µM | 213 ± 7 µM | –
COc1cc(O)ccc1/C=C1\Oc2ccccc2C1=O [SN-II-115] | – | – | 153 ± 21 µM (≈ 41 µg/mL) | 133 ± 24 µM | –
O=C1/C(=C/c2ccc(O)c(O)c2)Oc2ccccc21 [SN-II-118] | – | – | 263 ± 14 µM (≈ 66.8 µg/mL) | 280 ± 35 µM | –
